From publication PMC7162861, “Synthesis, cytotoxicity, pharmacokinetic profile, binding with DNA and BSA of new imidazo[1,2-a]pyrazine-benzo[d]imidazol-5-yl hybrids” (Scientific Reports, 2020)

What was measured:
HCC-2998 = assay: NCI cytotoxicity screen, Colon Cancer panel; format: cell-based, human; details: Homo sapiens; HCC-2998; single dose 10 µM; negative = lethal; read-out: Percent growth inhibition
Procedure: (§1) Cytotoxicity was performed at National Cancer Institute (NCI), Bethesda, USA as per their protocols.

KM12 = assay: NCI cytotoxicity screen, Colon Cancer panel; format: cell-based, human; details: Homo sapiens, single dose 10 µM, negative = lethal, read-out: Percent growth inhibition
Procedure: as §1

SW-620 = assay: NCI cytotoxicity screen, Colon Cancer panel; format: cell-based, human; details: Homo sapiens, single dose 10 µM, negative = lethal, read-out: Percent growth inhibition
Procedure: as §1

IGROV1 = assay: NCI cytotoxicity screen, Ovarian Cancer panel; format: cell-based; details: Homo sapiens, IGROV-1, single dose 10 µM, negative = lethal, read-out: Percent growth inhibition
Procedure: as §1

NCI/ADR-RES = assay: NCI cytotoxicity screen, Ovarian Cancer panel; format: cell-based; details: Homo sapiens, single dose 10 µM, negative = lethal, read-out: Percent growth inhibition
Procedure: as §1

OVCAR-4 = assay: NCI cytotoxicity screen, Ovarian Cancer panel; format: cell-based; details: Homo sapiens; OVCAR-4; single dose 10 µM; negative = lethal; read-out: Percent growth inhibition
Procedure: as §1

OVCAR-5 = assay: NCI cytotoxicity screen, Ovarian Cancer panel; format: cell-based; details: Homo sapiens, single dose 10 µM, negative = lethal, read-out: Percent growth inhibition
Procedure: as §1

OVCAR-8 = assay: NCI cytotoxicity screen, Ovarian Cancer panel; format: cell-based; details: Homo sapiens, single dose 10 µM, negative = lethal, read-out: Percent growth inhibition
Procedure: as §1

SK-OV-3 = assay: NCI cytotoxicity screen, Ovarian Cancer panel; format: cell-based; details: Homo sapiens, single dose 10 µM, negative = lethal, read-out: Percent growth inhibition
Procedure: as §1

786-0 = assay: NCI cytotoxicity screen, Renal Cancer panel; format: cell-based, human; details: Homo sapiens, single dose 10 µM, negative = lethal, read-out: Percent growth inhibition
Procedure: as §1

TK-10 = assay: NCI cytotoxicity screen, Renal Cancer panel; format: cell-based, human; details: Homo sapiens, single dose 10 µM, negative = lethal, read-out: Percent growth inhibition
Procedure: as §1

BT-549 = assay: NCI cytotoxicity screen, Breast Cancer panel; format: cell-based; details: Homo sapiens, single dose 10 µM, negative = lethal, read-out: Percent growth inhibition
Procedure: as §1

HS 578 T = assay: NCI cytotoxicity screen, Breast Cancer panel; format: cell-based; details: Homo sapiens; HS 578T; single dose 10 µM; negative = lethal; read-out: Percent growth inhibition
Procedure: as §1

MCF7 = assay: NCI cytotoxicity screen, Breast Cancer panel; format: cell-based; details: Homo sapiens, single dose 10 µM, negative = lethal, read-out: Percent growth inhibition
Procedure: as §1

MDA-MB-231/ATCC = assay: NCI cytotoxicity screen, Breast Cancer panel; format: cell-based; details: Homo sapiens, MDA-MB-231, read-out: Percent growth inhibition
Procedure: as §1

MDA-MB-468 = assay: NCI cytotoxicity screen, Breast Cancer panel; format: cell-based; details: Homo sapiens, single dose 10 µM, negative = lethal, read-out: Percent growth inhibition
Procedure: as §1

T-47D = assay: NCI cytotoxicity screen, Breast Cancer panel; format: cell-based; details: Homo sapiens, T47D, T-47D; single dose 10 µM; negative = lethal; read-out: Percent growth inhibition
Procedure: as §1

| SMILES | inhibition at 10 µM (HCC-2998) [%] | inhibition at 10 µM (KM12) [%] | inhibition at 10 µM (SW-620) [%] | inhibition at 10 µM (IGROV1) [%] | inhibition at 10 µM (NCI/ADR-RES) [%] | inhibition at 10 µM (OVCAR-4) [%] | inhibition at 10 µM (OVCAR-5) [%] | inhibition at 10 µM (OVCAR-8) [%] | inhibition at 10 µM (SK-OV-3) [%] | inhibition at 10 µM (786-0) [%] | inhibition at 10 µM (TK-10) [%] | inhibition at 10 µM (BT-549) [%] | inhibition at 10 µM (HS 578 T) [%] | inhibition at 10 µM (MCF7) [%] | inhibition at 10 µM (MDA-MB-231/ATCC) [%] | inhibition at 10 µM (MDA-MB-468) [%] | inhibition at 10 µM (T-47D) [%] | melting point [°C] |
| --- | --- | --- | --- | --- | --- | --- | --- | --- | --- | --- | --- | --- | --- | --- | --- | --- | --- | --- |
| c1ccc(-c2cn3ccnc3c(-c3ccc4c(c3)ncn4C3CCCCC3)n2)cc1 [Compound 9, 8-(1-cyclohexyl-1H-benzo[d]imidazol-5-yl)-6-phenylimidazo[1,2-a]pyrazine] | < 1 | 5.7 | < 1 | < 1 | < 1 | < 1 | < 1 | < 1 | < 1 | 8.24 | < 1 | 0.43 | < 1 | 15.8 | 6.64 | < 1 | 25.5 | 195 to 198 |
| COc1ccc(-c2cn3ccnc3c(-c3ccc4c(c3)ncn4C3CCCCC3)n2)cc1 [Compound 10, 8-(1-cyclohexyl-1H-benzo[d]imidazol-5-yl)-6-(4-methoxyphenyl)imidazo[1,2-a]pyrazine] | < 1 | 2.27 | < 1 | 5.82 | 1.93 | 7.51 | 1.45 | 7.75 | 5.37 | 12.7 | < 1 | 8.55 | 5.69 | 19.7 | < 1 | < 1 | 46.2 | 196 to 199 |
| c1ccc2c(-c3cn4ccnc4c(-c4ccc5c(c4)ncn5C4CCCCC4)n3)cccc2c1 [Compound 12, 8-(1-cyclohexyl-1H-benzo[d]imidazol-5-yl)-6-(naphthalen-1-yl)imidazo[1,2-a]pyrazine] | < 1 | 8.69 | 1.43 | 3.68 | 11.8 | 15 | < 1 | 24 | < 1 | 13.3 | 5.82 | 1.57 | 4.25 | 35.7 | 18.2 | 5.23 | 22 | 199 to 202 |
| Fc1ccc(-c2cn3ccnc3c(-c3ccc4c(c3)ncn4C3CCCCC3)n2)cc1 [Compound 13, 8-(1-cyclohexyl-1H-benzo[d]imidazol-5-yl)-6-(4-fluorophenyl)imidazo[1,2-a]pyrazine] | < 1 | 7.3 | < 1 | 6.4 | 2.36 | < 1 | < 1 | 3.09 | < 1 | 3.12 | < 1 | < 1 | < 1 | 9.59 | < 1 | < 1 | 10.1 | 187 to 189 |
| c1cn2cc(-c3ccsc3)nc(-c3ccc4c(c3)ncn4C3CCCCC3)c2n1 [Compound 14, 8-(1-cyclohexyl-1H-benzo[d]imidazol-5-yl)-6-(thiophen-3-yl)imidazo[1,2-a]pyrazine] | < 1 | 11.7 | < 1 | 19.1 | 4.17 | < 1 | < 1 | 6.38 | < 1 | < 1 | < 1 | 4.68 | 6.34 | 12 | 7.65 | 0.73 | > 50 | 185 to 188 |
| c1csc(-c2cn3ccnc3c(-c3ccc4c(c3)ncn4C3CCCCC3)n2)c1 [Compound 22, 8-(1-cyclohexyl-1H-benzo[d]imidazol-5-yl)-6-(thiophen-2-yl)imidazo[1,2-a]pyrazine] | < 1 | 6.84 | < 1 | < 1 | 6.79 | < 1 | < 1 | < 1 | < 1 | 0.59 | < 1 | < 1 | < 1 | 34 | 7.47 | 28.3 | 37.3 | 187 to 190 |
| c1cn2cc(-c3ccc4c(c3)ncn4C3CCCCC3)nc(-c3ccc4c(c3)ncn4C3CCCCC3)c2n1 [Compound 30, 6,8-bis(1-cyclohexyl-1H-benzo[d]imidazol-5-yl)imidazo[1,2-a]pyrazine] | < 1 | 56.2 | < 1 | < 1 | 4.12 | < 1 | < 1 | 11.6 | 11.8 | 13.9 | < 1 | 5.9 | 18.9 | 23.9 | 16.8 | 3.28 | 34.7 | 205 to 209 |
